Laboratory results reported in patent US20260060993A1, “COMPOSITION FOR IMPROVEMENT OF INTESTINAL FLORA” (MEIJI CO., LTD., priority 2022, published 2026).
“Also recorded” adds a separate entry of the source.

Legend:
bifidobacteria = conditions: known from Non-patent documents 7 and 8; cited from earlier work
Bifidobacterium bacteria = experiment: Human fecal culture system, relative abundance by 16S V3-V4 amplicon sequencing (Test Example 1); assay type: cell-based; conditions: 1% substance; for Change in relative abundance of Bifidobacterium bacteria: feces of two healthy adults, 2 days at 37° C., anaerobic, pH 6.5, versus control without substance
Method: (§1) Each substance to be evaluated was added at a concentration of 1% to a diluted fecal solution in which feces of healthy adult origin were suspended in the GAM Semisolid without Dextrose “Nissui” (Nissui Pharmaceutical Co., Ltd.) for GAM glycolysis from which agar was removed by filtration. Fecal materials of two individuals were each tested without mixing them. The medium used for the test was allowed to stand in an anaerobic glove box at least overnight before use. For the culture, a microbioreactor BioLector Pro […]-Labs) and a plate with microfluidic channels were used, and the culture was performed for 2 days at 37° C. and 600 rpm in an anaerobic environment while maintaining a constant pH of 6.5 with 1.5 N HCl and sodium hydroxide during the culture. The prebiotic abilities of the added substances were evaluated by comparing the bacterial flora obtained after the culture with that obtained under the control condition in which the substances to be evaluated were not added. DNA was extracted and purified from the diluted fecal solutions after the culture by using Maxwell RSC PureFood GMO & Authentication Kit (Promega), and amplicon sequencing of the V3-V4 region was performed by using MiSeq (Illumina). The resulting fastq files were analyzed with QIIME2 (https://quime2.org/) to calculate the relative abundance of each intestinal bacterium.

Parabacteroides bacteria [1] = experiment: as above; assay type: cell-based; conditions: 1% substance, feces of two healthy adults, 2 days at 37° C., anaerobic, pH 6.5, versus control without substance
Method: as §1

[2] = test system: Parabacteroides distasonis; experiment: Human fecal culture, 60 subjects, species-level analysis (Test Example 3); assay type: cell-based; conditions: 0.25% substance, n=60 fecal samples, 1 day at 37° C., anaerobic, versus distilled water; Wilcoxon's signed rank order test, p=2.07×10^−8
Method: Galactosylkojibiose (trisaccharide fraction) was added at a concentration of 0.25% to a diluted fecal solution in which feces of healthy adult origin were suspended in the GAM Semisolid without Dextrose “Nissui” (Nissui Pharmaceutical Co., Ltd.) from which agar was removed by filtration (n=60). The galactosylkojibiose (trisaccharide fraction) was the fractionated and purified product containing 4'-galactosylkojibiose as the main ingredient prepared in Production Example 2. The fecal samples for 60 subjects were aliquoted under refrigerated conditions immediately after excretion and frozen at -80° C. until use. The test was performed for each of the fecal samples without mixing them. The medium used for the test was allowed to stand in an anaerobic glove box at least overnight before use. […] The prebiotic ability of the added evaluation substance was evaluated by comparing the bacterial flora observed after the culture with that obtained under the control condition in which distilled water was added instead of the evaluation substance. […] The resulting fastq files were analyzed with QIIME2 (https://qiime2.org/) to calculate the relative abundance of each intestinal bacterium. […] The resulting fastq files were analyzed with QIIME2 (https://qiime2.org/), and confirmed that it was classified as that of […] at the bacterial species level. […]

Parabacteroides bacteria [3] = experiment: Human fecal culture, 60 subjects, genus-level analysis (Test Example 3); assay type: cell-based; conditions: 0.25% substance, n=60 fecal samples, 1 day at 37° C., anaerobic, versus distilled water; Wilcoxon's signed rank test, p=3.59×10^−8
Method: Galactosylkojibiose (trisaccharide fraction) was added at a concentration of 0.25% to a diluted fecal solution in which feces of healthy adult origin were suspended in the GAM Semisolid without Dextrose “Nissui” (Nissui Pharmaceutical Co., Ltd.) from which agar was removed by filtration (n=60). The galactosylkojibiose (trisaccharide fraction) was the fractionated and purified product containing 4′-galactosylkojibiose as the main ingredient prepared in Production Example 2. The fecal samples for 60 subjects were aliquoted under refrigerated conditions immediately after excretion and frozen at −80° C. until use. The test was performed for each of the fecal samples without mixing them. The medium used for the test was allowed to stand in an anaerobic glove box at least overnight before use. For the culture, a 96-well deepwell plate was used, and the culture was performed for 1 day at 37° C. in an anaerobic environment. The prebiotic ability of the added evaluation substance was evaluated by comparing the bacterial flora observed after the culture with that obtained under the control condition in which distilled water was added instead of the evaluation substance. […] The resulting fastq files were analyzed with QIIME2 (https://qiime2.org/) to calculate the relative abundance of each intestinal bacterium.

lactase = target: T1, lactase (Kluyveromyces lactis, UniProt P00723); experiment: Lactase treatment of the trisaccharide fraction, LCMS analysis; assay type: biochemical; conditions: 10% in phosphate-citrate buffer pH 6.5, 0.1% lactase (GODO-YNL), 40° C.
T1 construct: purchased Godo Shusei Co., Ltd. GODO-YNL
Method: The purified trisaccharide fraction was lyophilized and dissolved in a phosphate-citrate buffer, pH 6.5 at a concentration of 10%. Then, 0.1% of lactase (product name GODO-YNL, Godo Shusei Co., Ltd.) was added to the solution, and the enzymatic reaction was allowed at 40° C.

T1 sequence (P00723 whole entry): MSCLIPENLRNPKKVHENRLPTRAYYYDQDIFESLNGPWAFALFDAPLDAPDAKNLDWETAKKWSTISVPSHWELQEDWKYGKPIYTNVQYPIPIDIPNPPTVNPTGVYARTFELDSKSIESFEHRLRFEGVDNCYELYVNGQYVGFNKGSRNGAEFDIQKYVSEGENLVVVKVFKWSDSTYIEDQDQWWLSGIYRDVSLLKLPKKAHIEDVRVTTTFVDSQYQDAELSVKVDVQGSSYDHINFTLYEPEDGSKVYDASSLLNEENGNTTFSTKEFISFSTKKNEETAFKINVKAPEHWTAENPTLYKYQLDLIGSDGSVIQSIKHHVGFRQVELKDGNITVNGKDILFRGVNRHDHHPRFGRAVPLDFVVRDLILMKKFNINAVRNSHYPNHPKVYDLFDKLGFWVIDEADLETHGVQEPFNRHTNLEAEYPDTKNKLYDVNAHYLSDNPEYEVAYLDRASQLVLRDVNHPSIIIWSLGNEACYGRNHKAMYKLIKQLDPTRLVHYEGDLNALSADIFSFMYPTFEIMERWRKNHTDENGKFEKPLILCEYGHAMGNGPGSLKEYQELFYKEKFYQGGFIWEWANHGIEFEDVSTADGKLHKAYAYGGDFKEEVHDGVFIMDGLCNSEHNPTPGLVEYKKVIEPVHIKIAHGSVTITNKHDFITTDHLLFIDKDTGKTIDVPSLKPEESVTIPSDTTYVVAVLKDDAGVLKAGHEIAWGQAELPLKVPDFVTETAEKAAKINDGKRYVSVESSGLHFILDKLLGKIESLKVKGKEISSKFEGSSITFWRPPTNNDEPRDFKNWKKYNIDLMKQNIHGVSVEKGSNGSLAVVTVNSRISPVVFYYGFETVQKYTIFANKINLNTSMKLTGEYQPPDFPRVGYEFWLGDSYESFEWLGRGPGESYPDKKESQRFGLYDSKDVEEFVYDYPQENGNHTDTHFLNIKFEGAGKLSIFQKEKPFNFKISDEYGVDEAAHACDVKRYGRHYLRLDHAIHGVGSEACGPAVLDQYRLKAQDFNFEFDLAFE

Compound | Effect on growth of bifidobacteria (bifidobacteria) | Change in relative abundance of Bifidobacterium bacteria (Bifidobacterium bacteria) | Change in relative abundance of Parabacteroides bacteria (Parabacteroides bacteria [1]) | Increase of relative abundance of Bifidobacterium bacteria compared with kojibiose (Bifidobacterium bacteria; all samples of the two subjects, comparison with kojibiose) | Change in relative abundance of species indicated as “Parabacteroides_” (judged Parabacteroides distasonis) [2] | Change in relative abundance of Parabacteroides bacteria (genus level) (Parabacteroides bacteria [3]) | Product formed by lactase treatment (lactase)
OCC1OC(O)C(O[C@H]2OC(CO)[C@@H](O)[C@H](O)C2O)[C@@H](O)[C@@H]1O (stereo partly drawn) [kojibiose] | growth-promoting effect | increased | increase |  |  |  | 
OCC1O[C@H](OC2C(O)[C@H](O[C@@H]3OC(CO)[C@H](O)C(O)C3O)C(CO)O[C@H]2O)C(O)C(O)[C@@H]1O (stereo partly drawn) [α-D-Glcp-(1→2)-[β-D-Galp-(1→4)-]D-Glcp] |  | increased | increase | more significantly increased | significant increase; also recorded: significantly increased | significant increase | formation of kojibiose
